Test results reported in article PMC5831597, “Alleviating the Intestinal Absorption of Rhein in Rhubarb through Herb Compatibility in Tiaowei Chengqi Tang in Caco-2 Cells” (Evidence-based Complementary and Alternative Medicine : eCAM, 2018).
≈ marks a conversion by molar mass, not a printed value.

Tests used:
[1] = system: BCRP; details: BCRP inhibitor; cited from earlier work
[2] = system: Caco-2 cells; experiment: Cellular uptake of rhein in cultured Caco-2 cell monolayers; format: in vitro ADME, human; details: rhein 27.3 μg/ml
Method: Cell monolayers were prepared as described for the transport studies. […] Cells attached to the polycarbonate membranes were cut off from the inserts, immersed in 1 ml blank D-Hanks, and sonicated for 15 min. The mixture was centrifuged at 10,000 ×g for 5 min. The concentrations of all the samples were analyzed by UPLC-QTOF-HRMS-MS.

[3] = system: human colon adenocarcinoma cells (Caco-2); design: method as in PMID 19538468; details: Caco-2, 0.1–10 μg/ml; cited from earlier work
[4] = MTT cytotoxicity assay on Caco-2 cells; format: cell-based; details: human, 48 h exposure
Method: Caco-2 cells were maintained in DMEM containing 10% FBS (inactivation at 56°C for 30 min), 1% NEAA, and 1% penicillin and streptomycin solution in a humidified atmosphere with 5% CO2 at 37°C. The medium was replaced every 2 days, and the cells were passaged at 80 to 90% confluence using trypsin/phosphate-buffered saline (PBS, pH 7.4). The cytotoxicity of rhein, RE, PE, RPE, and TWCQT to Caco-2 cells was evaluated by MTT assay. Briefly, 200 μl of Caco-2 cells was seeded in a 96-well plate (Coring, NY, USA) at a density of 2 × 10^4 cells/ml. Following incubation for 24 h, different concentrations of test solution were added. Thereafter, 20 μl of 5 mg/mL MTT was added, the medium was removed after 4 h, and the remaining formazan crystals were solubilized with 150 μl of dimethyl sulfoxide (DMSO). The absorbance was measured at 490 nm on a microplate reader (Thermo Scientific, Tokyo, Japan). Cells incubated without the test samples were used as controls. In each MTT assay, every sample was tested in 6 replicates.

[5] = system: BCRP; experiment: Transport of rhein across the Caco-2 cell monolayer (A to B, B to A); format: in vitro ADME, human; details: human, Caco-2, with Ko143 10 μmol/ml, loaded onto the A side; rhein 27.3 μg/ml; Ko143 10 μmol/ml (BCRP inhibitor); read-out: ER of rhein in presence of Ko143
Method: (§1) For transport experiments, the cells were seeded at a density of 1 × 10^5 cells/ml on polycarbonate membranes of cell culture inserts (6.5 mm membrane diameter, 0.4 μm pore size, and 0.33 cm^2 surface area) and placed in 12-well cell culture clusters. The transepithelial electrical resistance (TEER) was assessed using a Millicell ERS-2 (Millipore, USA) to reflect the tightness of intercellular junctions. […] The transports of rhein alone, rhein in RE, PE, RPE, and TWCQT across Caco-2 monolayers were investigated. Briefly, the cell monolayers were washed 3 times with D-Hanks. After each wash, the plates were incubated in fresh D-Hanks for 30 min at 37°C. The transport experiments were conducted by adding the test solution to either the apical (A, 0.5 ml) or basolateral side (B, 1.5 ml), while the receiving chamber contained the corresponding volume of prewarmed drug-free D-Hanks. Every experiment was repeated 3 times, and the plates were incubated in an orbital shaker at 37°C. […] sequential samples (50 μl) were taken at different times (30, 60, 90, 120, and 150 min) from both sides of the cell monolayer. The same volume of D-Hanks was immediately added to replace the samples obtained. […] All inhibitors were loaded onto the A side of the monolayers. […] The concentrations of all the samples were analyzed by UPLC-QTOF-HRMS-MS. Data in the present study were presented as mean ± standard deviation (SD). Significant analysis was performed using Statistical Package for Social Sciences (SPSS) version 16.0 (SPSS Inc., Chicago, IL, USA). Statistical significance was determined by one-way ANOVA with Dunnett's test and differences were considered significant when p < 0.05. In the Caco-2 cell model, the rate of transport was obtained from the amount transported versus time curve using linear regression. The apparent permeability (Papp) used as an expression of the absorption rate constant was calculated as follows: Papp = (dQ/dt)/(A × C0), where dQ/dt is the rate at which the compound appears in the receiver chamber (mg/s), A is the surface area of the filter membrane ([…]), and C0 is the initial concentration in the donor chamber (mg/mL). Efflux ratio (ER) was calculated from the following equation: ER = […]), where Papp(B to A) is the Papp value measured in the B to A direction and Papp(A to B) is the Papp value measured in the A to B direction.

[6] = system: P-gp; experiment: as above; format: in vitro ADME, human; details: human, Caco-2, with verapamil 50 μmol/ml, loaded onto the A side; rhein 27.3 μg/ml; verapamil 50 μmol/ml (P-gp inhibitor); read-out: ER of rhein in presence of verapamil
Method: as §1

[7] = as above; format: in vitro ADME, human; details: human, Caco-2, PE, RPE
Method: as §1

[8] = system: Caco-2 cell monolayer; experiment: as above; format: in vitro ADME, human
Method: as §1

[9] = system: MRP2; experiment: as above; format: in vitro ADME, human; details: human, Caco-2, with MK-571 50 μmol/ml, loaded onto the A side; rhein 27.3 μg/ml; MK-571 50 μmol/ml (MRP2 inhibitor); read-out: ER of rhein in presence of MK-571
Method: as §1

In the case of `COc1ccc2c3c([nH]c2c1)[C@H](CC(C)C)N1C(=O)[C@H](CCC(=O)OC(C)(C)C)NC(=O)[C@@H]1C3` [Ko143], the “selectivity over P-gp and MRP1 transporters” value [1] is given as “higher than 200 fold”.
With `O=C(O)c1cc(O)c2c(c1)C(=O)c1cccc(O)c1C2=O` [Rhein] the “intracellular accumulation of rhein after Ko143” value ([2]; 2 h, Ko143 10 μmol/ml) was “significantly increased”, the “intracellular amounts of rhein after MK-571” value ([2]; 2 h, MK-571 50 μmol/ml) was “no significant changes” and the “intracellular amounts of rhein after verapamil” value ([2]; 2 h, verapamil 50 μmol/ml) was “no significant changes”. The “cellular uptake of rhein” value ([2]; A compartment, 2 h incubation) was 0.68 ng/μg protein, the “cytotoxic and genotoxic effects” value [3] was “devoid of cytotoxic and genotoxic effects” and the IC50 at 48 h [4] was 3490 ± 960 µg/mL (≈ 12.3 mM). It also gave an efflux ratio at 150 min, 27.3 μg/ml [5] of 1.27, an efflux ratio at 150 min, 27.3 μg/ml [6] of 2.12 and a Papp at 150 min, 27.3 μg/ml ([7]; apical to basolateral, rhein 27.3 μg/ml, TWCQT 1 mg/ml, read-out: Papp PAB of rhein) of 2.31 ± 0.13 ×10⁻⁶ cm/s. The Papp at 150 min, 54.6 μg/ml ([7]; apical to basolateral, rhein 54.6 μg/ml, TWCQT 2 mg/ml, read-out: Papp PAB of rhein) was 2.58 ± 0.26 ×10⁻⁶ cm/s, the Papp at 150 min, 109.2 μg/ml ([7]; apical to basolateral, rhein 109.2 μg/ml, TWCQT 4 mg/ml, read-out: Papp PAB of rhein) was 2.52 ± 0.19 ×10⁻⁶ cm/s and the Papp B→A at 150 min, 27.3 μg/ml ([7]; basolateral to apical, rhein 27.3 μg/ml, TWCQT 1 mg/ml, read-out: Papp PBA of rhein) was 6.54 ± 0.27 ×10⁻⁶ cm/s. The Papp B→A at 150 min, 54.6 μg/ml ([7]; basolateral to apical, rhein 54.6 μg/ml, TWCQT 2 mg/ml, read-out: Papp PBA of rhein) was 7.02 ± 0.58 ×10⁻⁶ cm/s, the Papp B→A at 150 min, 109.2 μg/ml ([7]; basolateral to apical, rhein 109.2 μg/ml, TWCQT 4 mg/ml, read-out: Papp PBA of rhein) was 6.72 ± 0.31 ×10⁻⁶ cm/s and the efflux ratio at 150 min, 27.3 μg/ml ([7]; rhein 27.3 μg/ml, TWCQT 1 mg/ml, read-out: ER PBA/PAB of rhein) was 2.83. The efflux ratio at 150 min, 54.6 μg/ml ([7]; rhein 54.6 μg/ml, TWCQT 2 mg/ml, read-out: ER PBA/PAB of rhein) was 2.72, the efflux ratio at 150 min, 109.2 μg/ml ([7]; rhein 109.2 μg/ml, TWCQT 4 mg/ml, read-out: ER PBA/PAB of rhein) was 2.38 and the “ER of rhein at different concentrations” value ([8]; 8.61, 17.22, 34.44, 27.3, 54.6 and 109.2 μg/ml rhein) was “more than 1.5”. The “amounts of rhein transported from B to A after Ko143” value ([8]; rhein 27.3 μg/ml, Ko143 10 μmol/ml, p < 0.01) was “significantly decreased”, the “influence of MK-571 on Papp values of rhein from B to A” value ([8]; rhein 27.3 μg/ml, MK-571 50 μmol/ml, p < 0.05) was “significant influences” and the “influence of verapamil on Papp values of rhein from A to B or B to A” value ([8]; rhein 27.3 μg/ml, verapamil 50 μmol/ml) was “no significant influence”. It also gave an efflux ratio at 150 min, 27.3 μg/ml [9] of 1.98.
